Test results taken from patent publication US3954733A, “Naphthyridine-3-carboxamido-benzylpenicillins and salts thereof” (Sumitomo Chemical Company, Limited, priority 1973, dated 1976).
In brackets after ≈: the same amount, converted by molar mass.

Experiments:
Pseudomonas = conditions: known penicillins and N-acyl ampicillins; cited from earlier work
[1] = tested on: gram-positive and gram-negative bacteria; conditions: known penicillins and N-acyl ampicillins; cited from earlier work
[2] = tested on: Pseudomonas aeruginosa 104; assay: minimal inhibitory concentration, agar dilution method; assay type: cell-based
Excerpt: (§1) When determined according to the agar dilution method, the penicillins (I) afford the minimal inhibitory concentrations against test microorganisms as shown in Table 2.

Escherichia coli NIHJ = assay: as above; assay type: cell-based
Excerpt: as §1

[3] = tested on: Staphylococcus aureus 209P; assay: as above; assay type: cell-based
Excerpt: as §1

Proteus vulgaris HV19 = assay: as above; assay type: cell-based
Proteus miravilis GN2425 = assay: as above; assay type: cell-based
[4] = tested on: Klebsiella pneumoniae PCI602; assay: as above; assay type: cell-based
Excerpt: as §1

| Molecule | antimicrobial activity against Pseudomonas (Pseudomonas) | growth inhibition / antimicrobial activity against gram-positive and gram-negative bacteria [1] | MIC [2] [µg/mL] | MIC (Escherichia coli NIHJ) [µg/mL] | MIC [3] [µg/mL] | MIC (Proteus vulgaris HV19) [µg/mL] | MIC (Proteus miravilis GN2425) [µg/mL] | MIC [4] [µg/mL] |
| --- | --- | --- | --- | --- | --- | --- | --- | --- |
| 6-(α-amino-isothiazolylacetamido)penicillanic acid | do not exert any appreciable antimicrobial activity against Pseudomonas | inhibit the growth of various gram-positive and gram-negative bacteria |  |  |  |  |  |  |
| 6-(α-amino-thienylacetamido)penicillanic acid | do not exert any appreciable antimicrobial activity against Pseudomonas | inhibit the growth of various gram-positive and gram-negative bacteria |  |  |  |  |  |  |
| CC1(C)S[C@@H]2C(NC(=O)C(N)c3ccc(O)cc3)C(=O)N2[C@H]1C(=O)O (stereo partly drawn) [Amoxycillin, 6-(α-amino-p-hydroxyphenylacetamido)penicillanic acid, reference compound] | do not exert any appreciable antimicrobial activity against Pseudomonas | inhibit the growth of various gram-positive and gram-negative bacteria | > 200 | 12.5 (≈ 34.2 µM) | 0.2 (≈ 0.547 µM) | 12.5 (≈ 34.2 µM) | 3.13 (≈ 8.57 µM) |  |
| CC1(C)S[C@@H]2C(NC(=O)C(N)c3ccccc3)C(=O)N2[C@H]1C(=O)O (stereo partly drawn) [Ampicillin, 6-(α-amino-phenylacetamido)penicillanic acid, reference compound] |  | inhibit the growth of various gram-positive and gram-negative bacteria |  | 6.26 (≈ 17.9 µM) | 0.1 (≈ 0.286 µM) |  |  |  |
| CC1(C)S[C@@H]2[C@H](NC(=O)C3(N)CCCCC3)C(=O)N2[C@H]1C(=O)O [Cyclacillin, 6-(1-amino-cyclohexane)carboxamidopenicillanic acid] | do not exert any appreciable antimicrobial activity against Pseudomonas | inhibit the growth of various gram-positive and gram-negative bacteria |  |  |  |  |  |  |
| CC1(C)S[C@@H]2[C@H](NC(=O)[C@H](N)C3=CCC=CC3)C(=O)N2[C@H]1C(=O)O [Epicillin, 6-[α-amino-2-(1,4-hexadienylacetamido)]penicillanic acid] | do not exert any appreciable antimicrobial activity against Pseudomonas | inhibit the growth of various gram-positive and gram-negative bacteria |  |  |  |  |  |  |
| CCOC(=O)Oc1ccc([C@@H](NC(=O)c2cnc3ccc(N(C)C)nc3c2O)C(=O)N[C@@H]2C(=O)N3[C@@H]2SC(C)(C)[C@@H]3C(=O)O)cc1Cl [Example 25] |  |  | 3.13 (≈ 4.56 µM) | 3.13 (≈ 4.56 µM) | 0.78 (≈ 1.14 µM) | 0.05 (≈ 0.0728 µM) | 3.13 (≈ 4.56 µM) |  |
| CC1(C)S[C@@H]2[C@H](NC(=O)[C@H](NC(=O)c3cc4ccccc4nc3O)c3ccc(O)cc3)C(=O)N2[C@H]1C(=O)O [Example 27] |  |  | 6.25 (≈ 11.6 µM) | 6.25 (≈ 11.6 µM) | 0.78 (≈ 1.45 µM) | 0.2 (≈ 0.373 µM) | 3.13 (≈ 5.83 µM) |  |
| COc1nc(OC)c2c(O)c(C(=O)N[C@@H](C(=O)N[C@@H]3C(=O)N4[C@@H]3SC(C)(C)[C@@H]4C(=O)O)c3ccc(O)cc3)cnc2n1 [Example 28] |  |  | 3.13 (≈ 5.23 µM) | 3.13 (≈ 5.23 µM) | 0.78 (≈ 1.3 µM) | 0.05 (≈ 0.0835 µM) | 3.13 (≈ 5.23 µM) |  |
| CC1(C)S[C@@H]2[C@H](NC(=O)[C@H](NC(=O)c3cnc4ccncc4c3O)c3ccc(O)cc3)C(=O)N2[C@H]1C(=O)O [Example 29] |  |  | 6.25 (≈ 11.6 µM) | 12.5 (≈ 23.3 µM) | 0.78 (≈ 1.45 µM) | 0.2 (≈ 0.372 µM) | 12.5 (≈ 23.3 µM) |  |
| CC(C)COC(=O)Oc1ccc([C@@H](NC(=O)c2cnc3nc(N(C)C)ncc3c2O)C(=O)N[C@@H]2C(=O)N3[C@@H]2SC(C)(C)[C@@H]3C(=O)O)cc1 [Example 30] |  |  | 6.25 (≈ 9.17 µM) | 6.25 (≈ 9.17 µM) | 0.78 (≈ 1.14 µM) | 0.05 (≈ 0.0733 µM) | 3.13 (≈ 4.59 µM) |  |
| Cc1nc(C)c2c(O)c(C(=O)N[C@@H](C(=O)N[C@@H]3C(=O)N4[C@@H]3SC(C)(C)[C@@H]4C(=O)O)c3ccc(O)cc3)cnc2n1 [Example 31] |  |  | 3.13 (≈ 5.52 µM) | 3.13 (≈ 5.52 µM) | 0.78 (≈ 1.38 µM) | 0.1 (≈ 0.176 µM) | 3.13 (≈ 5.52 µM) |  |
| CC1(C)S[C@@H]2[C@H](NC(=O)[C@H](NC(=O)c3cnc4cccnc4c3O)c3ccc(O)c(Cl)c3)C(=O)N2[C@H]1C(=O)O [Example 32] |  |  | 3.13 (≈ 5.47 µM) | 3.13 (≈ 5.47 µM) | 0.78 (≈ 1.36 µM) | 0.05 (≈ 0.0874 µM) | 6.25 (≈ 10.9 µM) |  |
| CCOC(=O)Oc1ccc([C@@H](NC(=O)c2cnc3cn[nH]c3c2O)C(=O)N[C@@H]2C(=O)N3[C@@H]2SC(C)(C)[C@@H]3C(=O)O)cc1 [Example 33] |  |  | 6.25 (≈ 10.4 µM) | 3.13 (≈ 5.23 µM) | 0.78 (≈ 1.3 µM) | 0.1 (≈ 0.167 µM) | 3.13 (≈ 5.23 µM) |  |
| CC1(C)S[C@@H]2[C@H](NC(=O)[C@H](NC(=O)c3cnc4cncnc4c3O)c3ccc(O)cc3)C(=O)N2[C@H]1C(=O)O [Example 34] |  |  | 1.56 (≈ 2.9 µM) | 1.56 (≈ 2.9 µM) | 0.78 (≈ 1.45 µM) | 0.05 (≈ 0.0928 µM) | 1.56 (≈ 2.9 µM) |  |
| Cc1nc(C)c2ncc(C(=O)N[C@@H](C(=O)N[C@@H]3C(=O)N4[C@@H]3SC(C)(C)[C@@H]4C(=O)O)c3ccc(O)cc3)c(O)c2n1 [Example 35] |  |  | 1.56 (≈ 2.75 µM) | 1.56 (≈ 2.75 µM) | 0.78 (≈ 1.38 µM) | 0.025 (≈ 0.0441 µM) | 1.56 (≈ 2.75 µM) |  |
| CCOC(=O)Oc1ccc([C@@H](NC(=O)c2cnc3c(OC)nc(OC)nc3c2O)C(=O)N[C@@H]2C(=O)N3[C@@H]2SC(C)(C)[C@@H]3C(=O)O)cc1 [Example 36] |  |  | 3.13 (≈ 4.67 µM) | 3.13 (≈ 4.67 µM) | 0.78 (≈ 1.16 µM) | 0.05 (≈ 0.0746 µM) | 3.13 (≈ 4.67 µM) |  |
| CCOC(=O)Oc1ccc([C@@H](NC(=O)c2cnc3cccnc3c2OC(=O)OCC)C(=O)N[C@@H]2C(=O)N3[C@@H]2SC(C)(C)[C@@H]3C(=O)O)cc1 [Example 37] |  |  | 1.56 (≈ 2.29 µM) | 1.56 (≈ 2.29 µM) | 0.78 (≈ 1.14 µM) | 0.025 (≈ 0.0367 µM) | 1.56 (≈ 2.29 µM) |  |
| CCOC(=O)Oc1ccc([C@@H](NC(=O)c2cnc3cccnc3c2S)C(=O)N[C@@H]2C(=O)N3[C@@H]2SC(C)(C)[C@@H]3C(=O)O)cc1 [Example 39] |  |  | 1.56 (≈ 2.49 µM) | 1.56 (≈ 2.49 µM) | 0.78 (≈ 1.25 µM) | 0.05 (≈ 0.0799 µM) | 1.56 (≈ 2.49 µM) |  |
| CC1(C)S[C@@H]2[C@H](NC(=O)C(NC(=O)c3cnc4cccnc4c3S)c3cc(Cl)c(O)c(Cl)c3)C(=O)N2[C@H]1C(=O)O (stereo partly drawn) [Example 40] |  |  | 6.25 (≈ 10 µM) | 12.5 (≈ 20.1 µM) | 1.56 (≈ 2.51 µM) | 0.2 (≈ 0.321 µM) | 6.25 (≈ 10 µM) |  |
| COc1cnc2c(O)c(C(=O)N[C@@H](C(=O)N[C@@H]3C(=O)N4[C@@H]3SC(C)(C)[C@@H]4C(=O)O)c3ccc(O)cc3)cnc2n1 [Example 41] |  |  | 3.13 (≈ 5.51 µM) | 6.25 (≈ 11 µM) | 1.56 (≈ 2.74 µM) | 0.2 (≈ 0.352 µM) | 6.25 (≈ 11 µM) |  |
| CCOC(=O)Oc1ccc([C@@H](NC(=O)c2cnc3scnc3c2O)C(=O)N[C@@H]2C(=O)N3[C@@H]2SC(C)(C)[C@@H]3C(=O)O)cc1 [Example 42] |  |  | 6.25 (≈ 10.2 µM) | 3.13 (≈ 5.08 µM) | 0.78 (≈ 1.27 µM) | 0.2 (≈ 0.325 µM) | 6.25 (≈ 10.2 µM) |  |
| CC1(C)S[C@@H]2[C@H](NC(=O)[C@H](NC(=O)c3cnc4cccnc4c3S)c3ccc(O)cc3)C(=O)N2[C@H]1C(=O)O [Example 43] |  |  | 1.56 (≈ 2.82 µM) | 1.56 (≈ 2.82 µM) | 0.78 (≈ 1.41 µM) | 0.025 (≈ 0.0452 µM) | 1.56 (≈ 2.82 µM) |  |
| CC1(C)S[C@@H]2[C@H](NC(=O)C(NC(=O)c3ccccn3)c3ccccc3)C(=O)N2[C@H]1C(=O)O (stereo partly drawn) [R, reference compound] |  |  | 50 (≈ 110 µM) | 100 (≈ 220 µM) | 0.78 (≈ 1.72 µM) |  | 50 (≈ 110 µM) | 50 (≈ 110 µM) |
